Experimental data from ChEMBL document CHEMBL5214900, “Design, Synthesis, and Biological Evaluation of Membrane-Active Bakuchiol Derivatives as Effective Broad-Spectrum Antibacterial Agents” (J Med Chem, 2021).
≈ marks a conversion by molar mass, not a printed value.

Tested on: Staphylococcus aureus
Assay: Antibacterial activity against Staphylococcus aureus ATCC 29213 assessed as inhibition of bacterial growth incubated for 24 hrs by CLSI based broth dilution method
Type: functional
Details: not given

SMILES	MIC [µg/mL]
C=C[C@@](C)(/C=C/c1ccc(OCCCCN(C)CCCN(C)CCCNC)cc1)CCC=C(C)C	1.56 (≈ 3.22 µM)
C=C[C@@](C)(/C=C/c1ccc(OCCCCNC(=N)N)cc1)CCC=C(C)C	3.12 (≈ 8.46 µM)

Tested on: Staphylococcus aureus
Assay: Antibacterial activity against methicillin-resistant Staphylococcus aureus N315 assessed as inhibition of bacterial growth incubated for 24 hrs by CLSI based broth dilution method
Type: functional
Details: not given

SMILES	MIC [µg/mL]
C=C[C@@](C)(/C=C/c1ccc(OCCCCN(C)CCCN(C)CCCNC)cc1)CCC=C(C)C	0.78 (≈ 1.61 µM)
C=C[C@@](C)(/C=C/c1ccc(OCCCCNC(=N)N)cc1)CCC=C(C)C	1.56 (≈ 4.22 µM)

Tested on: Staphylococcus aureus
Assay: Antibacterial activity against methicillin-resistant Staphylococcus aureus NCTC10442 assessed as inhibition of bacterial growth incubated for 24 hrs by CLSI based broth dilution method
Type: functional
Details: not given

SMILES	MIC [µg/mL]
C=C[C@@](C)(/C=C/c1ccc(OCCCCN(C)CCCN(C)CCCNC)cc1)CCC=C(C)C	1.56 (≈ 3.22 µM)
C=C[C@@](C)(/C=C/c1ccc(OCCCCNC(=N)N)cc1)CCC=C(C)C	3.12 (≈ 8.46 µM)

Tested on: Escherichia coli
Assay: Antibacterial activity against Escherichia coli ATCC 25922 assessed as inhibition of bacterial growth incubated for 24 hrs by CLSI based broth dilution method
Type: functional
Details: not given

SMILES	MIC [µg/mL]
C=C[C@@](C)(/C=C/c1ccc(OCCCCN(C)CCCN(C)CCCNC)cc1)CCC=C(C)C	1.56 (≈ 3.22 µM)
C=C[C@@](C)(/C=C/c1ccc(OCCCCNC(=N)N)cc1)CCC=C(C)C	25 (≈ 67.6 µM)

Tested on: not listed separately
Assay: Hemolytic activity in rabbit RBC measured after 1 hrs by multimode reader assay
Type: toxicity, cell-based, Oryctolagus cuniculus, Erythrocyte
Details: rabbit red blood cells (erythrocytes)

SMILES	HC50 at 1 h [µg/mL]
C=C[C@@](C)(/C=C/c1ccc(OCCCCN(C)CCCN(C)CCCNC)cc1)CCC=C(C)C	56.6
C=C[C@@](C)(/C=C/c1ccc(OCCCCNC(=N)N)cc1)CCC=C(C)C	75.7

Tested on: Pseudomonas aeruginosa
Assay: Antibacterial activity against Pseudomonas aeruginosa ATCC 9027 assessed as inhibition of bacterial growth incubated for 24 hrs by CLSI based broth dilution method
Type: functional
Details: not given

SMILES	MIC [µg/mL]
C=C[C@@](C)(/C=C/c1ccc(OCCCCN(C)CCCN(C)CCCNC)cc1)CCC=C(C)C	3.12 (≈ 6.46 µM)

Tested on: Acinetobacter baumannii
Assay: Antibacterial activity against Acinetobacter baumannii ATCC 17978 assessed as inhibition of bacterial growth incubated for 24 hrs by CLSI based broth dilution method
Type: functional
Details: not given

SMILES	MIC [µg/mL]
C=C[C@@](C)(/C=C/c1ccc(OCCCCN(C)CCCN(C)CCCNC)cc1)CCC=C(C)C	3.12 (≈ 6.46 µM)

Tested on: Acinetobacter baumannii
Assay: Antibacterial activity against Acinetobacter baumannii R2889 assessed as inhibition of bacterial growth incubated for 24 hrs by CLSI based broth dilution method
Type: functional
Details: not given

SMILES	MIC [µg/mL]
C=C[C@@](C)(/C=C/c1ccc(OCCCCN(C)CCCN(C)CCCNC)cc1)CCC=C(C)C	3.12 (≈ 6.46 µM)

Tested on: Klebsiella pneumoniae
Assay: Antibacterial activity against Klebsiella pneumoniae ATCC 10031 assessed as inhibition of bacterial growth incubated for 24 hrs by CLSI based broth dilution method
Type: functional
Details: not given

SMILES	MIC [µg/mL]
C=C[C@@](C)(/C=C/c1ccc(OCCCCN(C)CCCN(C)CCCNC)cc1)CCC=C(C)C	1.56 (≈ 3.22 µM)

Tested on: Klebsiella pneumoniae
Assay: Antibacterial activity against Klebsiella pneumoniae ATCC 14581 assessed as inhibition of bacterial growth incubated for 24 hrs by CLSI based broth dilution method
Type: functional
Details: not given

SMILES	MIC [µg/mL]
C=C[C@@](C)(/C=C/c1ccc(OCCCCN(C)CCCN(C)CCCNC)cc1)CCC=C(C)C	1.56 (≈ 3.22 µM)

Tested on: not listed separately
Assay: Dissociation constant, pKa of compound by potentiometric titration method
Type: physicochemical
Details: not given

SMILES	pKa
C=C[C@@](C)(/C=C/c1ccc(OCCCCNC(=N)N)cc1)CCC=C(C)C	11.4

Tested on: Staphylococcus aureus
Assay: Antibacterial activity against Staphylococcus aureus ATCC 29213 assessed as fold increase in MIC incubated for 24 hrs in presence of 140 mM Na+ by CLSI based broth dilution method
Type: functional
Details: not given

SMILES	fold change (FC)
C=C[C@@](C)(/C=C/c1ccc(OCCCCN(C)CCCN(C)CCCNC)cc1)CCC=C(C)C	<2

Tested on: Staphylococcus aureus
Assay: Antibacterial activity against Staphylococcus aureus ATCC 29213 assessed as fold increase in MIC incubated for 24 hrs in presence of 4.5 mM K+ by CLSI based broth dilution method
Type: functional
Details: not given

SMILES	fold change (FC)
C=C[C@@](C)(/C=C/c1ccc(OCCCCN(C)CCCN(C)CCCNC)cc1)CCC=C(C)C	<2

Tested on: Staphylococcus aureus
Assay: Antibacterial activity against Staphylococcus aureus ATCC 29213 assessed as fold increase in MIC incubated for 24 hrs in presence of 2.5 mM Ca2+ by CLSI based broth dilution method
Type: functional
Details: not given

SMILES	fold change (FC)
C=C[C@@](C)(/C=C/c1ccc(OCCCCN(C)CCCN(C)CCCNC)cc1)CCC=C(C)C	<2

Tested on: Staphylococcus aureus
Assay: Antibacterial activity against Staphylococcus aureus ATCC 29213 assessed as fold increase in MIC incubated for 24 hrs in presence of 1 mM Mg2+ by CLSI based broth dilution method
Type: functional
Details: not given

SMILES	fold change (FC)
C=C[C@@](C)(/C=C/c1ccc(OCCCCN(C)CCCN(C)CCCNC)cc1)CCC=C(C)C	<2

Tested on: Staphylococcus aureus
Assay: Antibacterial activity against Staphylococcus aureus NCTC10442 assessed as fold increase in MIC incubated for 24 hrs in presence of 140 mM Na+ by CLSI based broth dilution method
Type: functional
Details: not given

SMILES	fold change (FC)
C=C[C@@](C)(/C=C/c1ccc(OCCCCN(C)CCCN(C)CCCNC)cc1)CCC=C(C)C	<2

Tested on: Staphylococcus aureus
Assay: Antibacterial activity against Staphylococcus aureus NCTC10442 assessed as fold increase in MIC incubated for 24 hrs in presence of 4.5 mM K+ by CLSI based broth dilution method
Type: functional
Details: not given

SMILES	fold change (FC)
C=C[C@@](C)(/C=C/c1ccc(OCCCCN(C)CCCN(C)CCCNC)cc1)CCC=C(C)C	<2

Tested on: Staphylococcus aureus
Assay: Antibacterial activity against Staphylococcus aureus NCTC10442 assessed as fold increase in MIC incubated for 24 hrs in presence of 2.5 mM Ca2+ by CLSI based broth dilution method
Type: functional
Details: not given

SMILES	fold change (FC)
C=C[C@@](C)(/C=C/c1ccc(OCCCCN(C)CCCN(C)CCCNC)cc1)CCC=C(C)C	<2

Tested on: Staphylococcus aureus
Assay: Antibacterial activity against Staphylococcus aureus NCTC10442 assessed as fold increase in MIC incubated for 24 hrs in presence of 1 mM Mg2+ by CLSI based broth dilution method
Type: functional
Details: not given

SMILES	fold change (FC)
C=C[C@@](C)(/C=C/c1ccc(OCCCCN(C)CCCN(C)CCCNC)cc1)CCC=C(C)C	<2

Tested on: Acinetobacter baumannii
Assay: Antibacterial activity against Acinetobacter baumannii ATCC 17978 assessed as fold increase in MIC incubated for 24 hrs in presence of 140 mM Na+ by CLSI based broth dilution method
Type: functional
Details: not given

SMILES	fold change (FC)
C=C[C@@](C)(/C=C/c1ccc(OCCCCN(C)CCCN(C)CCCNC)cc1)CCC=C(C)C	<2

Tested on: Acinetobacter baumannii
Assay: Antibacterial activity against Acinetobacter baumannii ATCC 17978 assessed as fold increase in MIC incubated for 24 hrs in presence of 4.5 mM K+ by CLSI based broth dilution method
Type: functional
Details: not given

SMILES	fold change (FC)
C=C[C@@](C)(/C=C/c1ccc(OCCCCN(C)CCCN(C)CCCNC)cc1)CCC=C(C)C	<2

Tested on: Acinetobacter baumannii
Assay: Antibacterial activity against Acinetobacter baumannii ATCC 17978 assessed as fold increase in MIC incubated for 24 hrs in presence of 2.5 mM Ca2+ by CLSI based broth dilution method
Type: functional
Details: not given

SMILES	fold change (FC)
C=C[C@@](C)(/C=C/c1ccc(OCCCCN(C)CCCN(C)CCCNC)cc1)CCC=C(C)C	<2

Tested on: Acinetobacter baumannii
Assay: Antibacterial activity against Acinetobacter baumannii ATCC 17978 assessed as fold increase in MIC incubated for 24 hrs in presence of 1 mM Mg2+ by CLSI based broth dilution method
Type: functional
Details: not given

SMILES	fold change (FC)
C=C[C@@](C)(/C=C/c1ccc(OCCCCN(C)CCCN(C)CCCNC)cc1)CCC=C(C)C	<2

Tested on: Escherichia coli
Assay: Antibacterial activity against Escherichia coli ATCC 25922 assessed as fold increase in MIC incubated for 24 hrs in presence of 140 mM Na+ by CLSI based broth dilution method
Type: functional
Details: not given

SMILES	fold change (FC)
C=C[C@@](C)(/C=C/c1ccc(OCCCCN(C)CCCN(C)CCCNC)cc1)CCC=C(C)C	<2

Tested on: Escherichia coli
Assay: Antibacterial activity against Escherichia coli ATCC 25922 assessed as fold increase in MIC incubated for 24 hrs in presence of 4.5 mM K+ by CLSI based broth dilution method
Type: functional
Details: not given

SMILES	fold change (FC)
C=C[C@@](C)(/C=C/c1ccc(OCCCCN(C)CCCN(C)CCCNC)cc1)CCC=C(C)C	<2

Tested on: Escherichia coli
Assay: Antibacterial activity against Escherichia coli ATCC 25922 assessed as fold increase in MIC incubated for 24 hrs in presence of 2.5 mM Ca2+ by CLSI based broth dilution method
Type: functional
Details: not given

SMILES	fold change (FC)
C=C[C@@](C)(/C=C/c1ccc(OCCCCN(C)CCCN(C)CCCNC)cc1)CCC=C(C)C	<2

Tested on: Escherichia coli
Assay: Antibacterial activity against Escherichia coli ATCC 25922 assessed as fold increase in MIC incubated for 24 hrs in presence of 1 mM Mg2+ by CLSI based broth dilution method
Type: functional
Details: not given

SMILES	fold change (FC)
C=C[C@@](C)(/C=C/c1ccc(OCCCCN(C)CCCN(C)CCCNC)cc1)CCC=C(C)C	<2
